Assay results as given in patent US7064117B2, “Anti-cancer 2,3-dihydro-1H-pyrrolo[3,2-f]quinoline complexes of cobalt and chromium” (Auckland Uniservices Limited, priority 2001, dated 2006).
Where two headings read alike, the source gives them in different places.

What was measured:
EMT6 = assay: cytotoxicity, 4 h aerobic drug exposure, EMT6; type: cell-based, murine; conditions: read-out: IC50 EMT6
AA8 = assay: cytotoxicity, 4 h aerobic drug exposure, AA8; type: cell-based, Chinese hamster; conditions: read-out: IC50 AA8
SKOV3 [1] = assay: cytotoxicity, 4 h aerobic drug exposure, SKOV3; type: cell-based, human; conditions: read-out: IC50 SKOV3
UV4 cell line = assay: cytotoxicity, 4 h aerobic drug exposure, UV4; type: cell-based, Chinese hamster; conditions: read-out: IC50 UV4
HT29 cultures = assay: activation by endogenous enzymes under hypoxia (Table 4 and FIG. 2); type: cell-based; conditions: summary of Table 4 and FIG. 2
From the text: (§1) The metal complexes also show an ability to be activated by endogenous enzymes under hypoxia, as shown for metal complex M1 in Table 4 and FIG. 2. […] Thus the metal complexes have utility as hypoxia- as well as radiation-activated cytotoxins.

SKOV3 [2] = assay: cytotoxicity under oxic and anoxic conditions, SKOV3; type: cell-based, human; conditions: for IC50: Homo sapiens, SK-OV-3, 4 h exposure
Method: as §1
(§2) In Table 4, A549wt/s is a wild-type human […] carcinoma cell line, SKOV3 is a human ovarian cancer cell line and WiDr-2 is a clonal cell line derived from the WiDr human colon carcinoma line. IC50s (in μM are determined under both oxic and hypoxic conditions, and the hypoxic cytotoxicity ratio (HCR) is the average intra-experiment ratio of the IC50s measured under oxic and hypoxic conditions.

A549 wt/s = assay: cytotoxicity under oxic and anoxic conditions, A549 wt/s; type: cell-based, human; conditions: for IC50: Homo sapiens, A549, 4 h exposure
Method: as §1, §2

[3] = system: panel of mammalian cell lines; assay: cytotoxicity in a panel of mammalian cell lines (summary in words); conditions: summary of Table 2
[4] = Cricetulus griseus, CHO-AA8, 4 h
[5] = average intra-experiment ratio of IC50s oxic/hypoxic
[6] = 4 h aerobic exposure, mean ± sem

Q: Which melting point does the source give for `CN(C)CCOC1(O)C=CC2=NC(C(=O)N3CC(CCl)c4c3ccc3ncccc43)=CC2=C1` (centres unmarked) here?
A: Its melting point is 176 to 179 °C.

Q: With `COc1ccc2[nH]c(C(=O)N3CC(CCl)c4c3cc(O)c3ncccc43)cc2c1` (centres unmarked) as the molecule, how does the melting point read?
A: The melting point was 186 to 189 °C.

Q: For `COc1ccc(/C=C/C(=O)N2CC(CCl)c3c2cc(O)c2ncccc32)cc1` (centres unmarked), which melting point is on record?
A: Its melting point is 208 to 211 °C.

Q: With `COc1ccc(/C=C/C(=O)N2CC(CCl)c3c2cc(O)c2ncccc32)cc1O` (centres unmarked) as the molecule, how does the melting point read?
A: The melting point was 215 to 218 °C.

Q: For `Cl.Cl.Cl.Cl.O=S(=O)(O)CCCN1CCNCCN(CCCS(=O)(=O)O)CCNCC1`, which melting point is on record?
A: Its melting point is 279 to 281 °C.

Q: For `Cl.Cl.Cl.Cl.O=S(=O)(O)CCCCN1CCNCCNCCNCC1`, which melting point is on record?
A: Its melting point is 301 to 303 °C.

Q: Which results are given for `Oc1cccc2cccnc12` [Compound 8-HQ, 8-hydroxyquinoline, reference compound]?
A: IC50 (EMT6; Mus musculus, EMT6, 4 h): 3.92 ± 1.04 µM; IC50 (AA8; [4]): 2.07 ± 0.02 µM; IC50 (SKOV3 [1]; Homo sapiens, SK-OV-3, 4 h): 4.07 ± 0.89 µM; IC50 (UV4 cell line; Cricetulus griseus, UV4, 4 h): 2.16 ± 0.12 µM

Q: Which IC50 (EMT6; Mus musculus, EMT6, 4 h) does the source give for `COc1cc2cc(C(=O)N3CC(CCl)c4c3cc(O)c3ncccc43)[nH]c2c(OC)c1OC` (centres unmarked) [Compound 18a, 1-(Chloromethyl)-5-hydroxy-3-[(5,6,7-trimethoxyindol-2-yl)carbonyl]-2,3-dihydro-1H-pyrrolo[3,2-f]quinoline] here?
A: The IC50 was 5.1e-05 ± 8e-06 µM.

Q: What about the IC50 (AA8; [4]) of the same molecule?
A: The IC50 was 0.00014 ± 2.2e-05 µM.

Q: What about the IC50 (SKOV3 [1]; Homo sapiens, SK-OV-3, 4 h) of the same molecule?
A: Its IC50 is 0.00025 ± 3.7e-05 µM.

Q: And the “activation by endogenous enzymes under hypoxia, in words” value (HT29 cultures)?
A: The value was “not activated by endogenous enzymes under hypoxic conditions”.

Q: What about the IC50 (SKOV3 [2]; anoxic, read-out: IC50 SKOV3 anoxic) of the same molecule?
A: The IC50 was 0.00035 ± 9.3e-05 µM.

Q: And the IC50 (SKOV3 [2]; oxic, read-out: IC50 SKOV3 oxic)?
A: Its IC50 is 0.00025 ± 3.7e-05 µM.

Q: What about the “HCR SKOV3 (hypoxic cytotoxicity ratio)” value (SKOV3 [2]; [5]) of the same molecule?
A: Its value is 0.61(1).

Q: And the IC50 (UV4 cell line; Cricetulus griseus, UV4, 4 h)?
A: Its IC50 is 7e-05 ± 1.5e-05 µM.

Q: And the IC50 (A549 wt/s; anoxic, read-out: IC50 A549 wt/s anoxic)?
A: The IC50 was 0.05 ± 0.014 nM.

Q: And the IC50 (A549 wt/s; oxic, read-out: IC50 A549 wt/s oxic)?
A: Its IC50 is 0.05 ± 0.016 nM.

Q: And the “HCR A549 wt/s (hypoxic cytotoxicity ratio)” value (A549 wt/s; [5])?
A: The value was 0.79 ± 0.35(2).

Q: And the cytotoxicity in words [3]?
A: Its cytotoxicity in words is “exceptionally cytotoxic”.

Q: With `COc1cc2cc(C(=O)N3CC(CCl)c4c3cc(N)c3ncccc43)[nH]c2c(OC)c1OC` (centres unmarked) [Compound 27, 5-Amino-1-(chloromethyl)-3-[(5,6,7-trimethoxyindol-2-yl)carbonyl]-2,3-dihydro-1H-pyrrolo[3,2-f]quinoline] as the molecule, how does the IC50 (EMT6; Mus musculus, EMT6, 4 h aerobic exposure, mean ± sem) read?
A: The IC50 was 0.0026 ± 0.0005 µM.

Q: What about the IC50 (AA8; Cricetulus griseus, CHO-AA8, 4 h aerobic exposure, mean ± sem) of the same molecule?
A: Its IC50 is 0.0079 ± 0.002 µM.

Q: What about the IC50 (SKOV3 [1]; Homo sapiens, SK-OV-3, 4 h aerobic exposure, mean ± sem) of the same molecule?
A: Its IC50 is 0.012 ± 0.0023 µM.

Q: What about the IC50 (UV4 cell line; Cricetulus griseus, UV4, 4 h aerobic exposure, mean ± sem) of the same molecule?
A: The IC50 was 0.0029 ± 0.006 µM.

Q: What about the melting point of the same molecule?
A: Its melting point is 258 to 263 °C.

Q: What about the cytotoxicity in words [3] of the same molecule?
A: The cytotoxicity in words was “exceptionally cytotoxic”.

Q: With `COc1cc2cc(C(=O)N3CC(CCl)c4c3cc(NCCN)c3ccccc43)[nH]c2c(OC)c1OC.Cl.Cl` (centres unmarked) [Compound 29, 5-(2-aminoethylamino)-3-[(5,6,7-trimethoxyindol-2-yl)carbonyl]-1-(chloromethyl)-1,2-dihydro-3H-benz[e]indole dihydrochloride] as the molecule, how does the IC50 (EMT6; Mus musculus, EMT6, 4 h) read?
A: The IC50 was 0.0028 µM.

Q: What about the IC50 (AA8; [4]) of the same molecule?
A: Its IC50 is 0.0058 ± 0.0007 µM.

Q: What about the IC50 (SKOV3 [1]; Homo sapiens, SK-OV-3, 4 h) of the same molecule?
A: The IC50 was 0.0062 µM.

Q: And the IC50 (UV4 cell line; Cricetulus griseus, UV4, 4 h)?
A: The IC50 was 0.0041 ± 0.0003 µM.

Q: And the melting point?
A: The melting point was greater than 200 °C.

Q: What about the cytotoxicity in words [3] of the same molecule?
A: The cytotoxicity in words was “exceptionally cytotoxic”.

Q: For `C1CNCCNCCNCCN1` [Cyclen, reference compound], which IC50 (EMT6; [6]) is on record?
A: The IC50 was 9710 ± 2710 µM.

Q: What about the IC50 (AA8; [6]) of the same molecule?
A: The IC50 was 13300 ± 2670 µM.

Q: What about the IC50 (SKOV3 [1]; [6]) of the same molecule?
A: The IC50 was 11500 ± 4410 µM.

Q: And the IC50 (UV4 cell line; [6])?
A: The IC50 was 13800 ± 2180 µM.
